The values below come from patent US20070010671A1, “Novel quinazoline derivatives and methods of treatment related to the use thereof” (priority 2003, published 2007).

One experiment addresses MCH receptor (Homo sapiens, UniProt Q99705). The experiment is described as follows: High throughput functional screening FLIPR/FDSS6000: inhibition of MCH-evoked intracellular Ca2+ changes. The format is cell-based. As to conditions: class by percent of control at 10^-7 M or IC50. An outline of the steps:
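Antagonism is measured as inhibition of the intracellular calcium rise triggered by 50 nM MCH in cells bearing a constitutively active, non-endogenous form of the receptor. Cells are dye-loaded with Fluo4-AM and exposed to compound for 3 min at 37° C before agonist addition.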
In the case of `Cc1noc(-c2ccccc2)c1NC(=O)N[C@H]1CC[C@@H](Nc2nc(N(C)C)c3ccccc3n2)CC1` [compound 354, N-(cis-4-{[4-(dimethylamino)quinazolin-2-yl]amino}cyclohexyl)-N′-(3-methyl-5-phenylisoxazol-4-yl)urea], the class is 1 (Class 1: The value of percent of control at 10^−7 M was less than 40% or the value of IC50 was less than 50 nM.).

In the case of `Cc1ccc(NC(=S)NC[C@H]2CC[C@@H](Nc3nc(N(C)C)c4ccccc4n3)CC2)cc1Cl` [compound 687], the class is recorded as 3 (Class 3: The value of percent of control at 10^−7 M was more than 60% or the value of IC50 was more than 200 nM.).

For `CN(C)c1nc(N[C@H]2CC[C@@H](CNC(=S)Nc3cccc(F)c3)CC2)nc2ccccc12` [compound 650], the class is 3 (Class 3: The value of percent of control at 10^−7 M was more than 60% or the value of IC50 was more than 200 nM.).

Take `Cc1cc(Cl)cc(Cl)c1NC(=S)NC[C@H]1CC[C@@H](Nc2nc(N(C)C)c3ccccc3n2)CC1` [compound 782, N-(2,4-dichloro-6-methylphenyl)-N′-[(cis-4-{[4-(dimethylamino)quinazolin-2-yl]amino}cyclohexyl)methyl]thiourea]: the class is 2 (Class 2: The value of percent of control at 10^−7 M was from 40% to 60% or the value of IC50 was from 50 nM to 200 nM.). Same read-out and setting: as for `Cc1cc(C)c(NC(=O)NC[C@H]2CC[C@@H](Nc3nc(N(C)C)c4ccccc4n3)CC2)c(C)c1` [compound 458, N-[(cis-4-{[4-(dimethylamino)quinazolin-2-yl]amino}cyclohexyl)methyl]-N′-mesitylurea], the figure is 1 (Class 1: The value of percent of control at 10^−7 M was less than 40% or the value of IC50 was less than 50 nM.); as for `CC(NC(=S)NC[C@H]1CC[C@@H](Nc2nc(N(C)C)c3ccccc3n2)CC1)c1ccccc1` (relative stereo) [compound 707], 3 (Class 3: The value of percent of control at 10^−7 M was more than 60% or the value of IC50 was more than 200 nM.). Same read-out and setting: in the case of `CCCCc1ccc(NC(=S)N[C@H]2CC[C@@H](Nc3nc(N(C)C)c4ccccc4n3)CC2)cc1` [compound 281] it was 3 (Class 3: The value of percent of control at 10^−7 M was more than 60% or the value of IC50 was more than 200 nM.); in that of `CN(C)c1nc(N[C@H]2CC[C@@H](NC(=S)NCc3ccc(F)cc3)CC2)nc2ccccc12` [compound 274, N-(cis-4-{[4-(dimethylamino)quinazolin-2-yl]amino}cyclohexyl)-N′-(4-fluorobenzyl)thiourea], 2 (Class 2: The value of percent of control at 10^−7 M was from 40% to 60% or the value of IC50 was from 50 nM to 200 nM.); in that of `CC(C)c1ccc(NC(=S)N[C@H]2CC[C@@H](Nc3nc(N(C)C)c4ccccc4n3)CC2)cc1` [compound 275, N-(cis-4-{[4-(dimethylamino)quinazolin-2-yl]amino}cyclohexyl)-N′-(4-isopropylphenyl)thiourea], 2 (Class 2: The value of percent of control at 10^−7 M was from 40% to 60% or the value of IC50 was from 50 nM to 200 nM.).

Consider `CN(C)c1nc(N[C@H]2CC[C@@H](NC(=S)NCc3ccc(Cl)cc3)CC2)nc2ccccc12` [compound 271], for which the class is reported as 3 (Class 3: The value of percent of control at 10^−7 M was more than 60% or the value of IC50 was more than 200 nM.).

As for `CN(C)c1nc(N[C@H]2CC[C@@H](NC(=S)Nc3ccc(Oc4ccccc4)cc3)CC2)nc2ccccc12` [compound 323], the class is 3 (Class 3: The value of percent of control at 10^−7 M was more than 60% or the value of IC50 was more than 200 nM.). On the same count and under the same terms, as for `COc1ccc(Cl)cc1NC(=O)NC[C@H]1CC[C@@H](Nc2nc(N(C)C)c3ccccc3n2)CC1` [compound 564], the figure is 3 (Class 3: The value of percent of control at 10^−7 M was more than 60% or the value of IC50 was more than 200 nM.); as for `CN(C)c1nc(N[C@H]2CC[C@@H](CNC(=S)NCc3cccc(Cl)c3)CC2)nc2ccccc12` [compound 729], 3 (Class 3: The value of percent of control at 10^−7 M was more than 60% or the value of IC50 was more than 200 nM.). Same read-out and setting: in the case of `CN(C)c1nc(N[C@H]2CC[C@@H](NC(=S)Nc3ccc(C(F)(F)F)cc3)CC2)nc2ccccc12` [compound 231, N-(cis-4-{[4-(dimethylamino)quinazolin-2-yl]amino}cyclohexyl)-N′-[4-(trifluoromethyl)phenyl]thiourea] it was 2 (Class 2: The value of percent of control at 10^−7 M was from 40% to 60% or the value of IC50 was from 50 nM to 200 nM.); in that of `CCc1ccc(NC(=S)N[C@H]2CC[C@@H](Nc3nc(N(C)C)c4ccccc4n3)CC2)cc1` [compound 205], 2 (Class 2: The value of percent of control at 10^−7 M was from 40% to 60% or the value of IC50 was from 50 nM to 200 nM.).

As for `COc1ccccc1NC(=S)NC[C@H]1CC[C@@H](Nc2nc(N(C)C)c3ccccc3n2)CC1` [compound 609], the class is 3 (Class 3: The value of percent of control at 10^−7 M was more than 60% or the value of IC50 was more than 200 nM.). Same read-out and setting: as for `Cc1ccccc1NC(=S)NC[C@H]1CC[C@@H](Nc2nc(N(C)C)c3ccccc3n2)CC1` [compound 622], the figure is 3 (Class 3: The value of percent of control at 10^−7 M was more than 60% or the value of IC50 was more than 200 nM.); as for `CC(C)c1cccc(C(C)C)c1NC(=S)NC[C@H]1CC[C@@H](Nc2nc(N(C)C)c3ccccc3n2)CC1` [compound 675], 2 (Class 2: The value of percent of control at 10^−7 M was from 40% to 60% or the value of IC50 was from 50 nM to 200 nM.). On the same count and under the same terms, in the case of `CN(C)c1nc(N[C@H]2CC[C@@H](NC(=S)Nc3cc(C(F)(F)F)ccc3F)CC2)nc2ccccc12` [compound 217] it was 3 (Class 3: The value of percent of control at 10^−7 M was more than 60% or the value of IC50 was more than 200 nM.).

The experiment is the same for the next values; noted with them: class by percent of control at 10^-7 M or by IC50; read-out: class.
Consider `CN(C)c1nc(N[C@H]2CC[C@@H](NC(=O)OCC3c4ccccc4-c4ccccc43)CC2)nc2ccccc12` [compound 864], for which the IC50 was above 200 nM.

With `Cc1cccc(NC(=O)N[C@H]2CC[C@@H](Nc3nc(N(C)C)c4ccccc4n3)CC2)c1C` [compound 27, N-(cis-4-{[4-(dimethylamino)quinazolin-2-yl]amino}cyclohexyl)-N′-(2,3-dimethylphenyl)urea], the IC50 was below 50 nM. On the same count and under the same terms, in the case of `CN(C)c1nc(N[C@H]2CC[C@@H](CNC(=O)OCC(C)(C)C)CC2)nc2ccccc12` [compound 867] it was above 200 nM. Turning to `CN(C)c1nc(N[C@H]2CC[C@@H](NC(=O)Nc3c(F)cc(Br)cc3Br)CC2)nc2ccccc12` [compound 76, N-(2,4-dibromo-6-fluorophenyl)-N′-(cis-4-{[4-(dimethylamino)quinazolin-2-yl]amino}cyclohexyl)urea], the IC50 is below 50 nM.

As to `CN(C)c1nc(N[C@H]2CC[C@@H](NC(=O)Nc3cccc(C(F)(F)F)c3F)CC2)nc2ccccc12` [compound 96], the IC50 was above 200 nM. On the same count and under the same terms, in the case of `Cc1cccc(C)c1NC(=O)N[C@H]1CC[C@@H](Nc2nc(N(C)C)c3ccccc3n2)CC1` [compound 19, N-(cis-4-{[4-(dimethylamino)quinazolin-2-yl]amino}cyclohexyl)-N′-(2,6-dimethylphenyl)urea] it was below 50 nM; in that of `CN(C)c1nc(N[C@H]2CC[C@@H](NC(=O)NCc3ccc(Cl)c(Cl)c3)CC2)nc2ccccc12` [compound 122, N-(3,4-dichlorobenzyl)-N′-(cis-4-{[4-(dimethylamino)quinazolin-2-yl]amino}cyclohexyl)urea], 50 to 200 nM; in that of `CSc1ccccc1NC(=O)N[C@H]1CC[C@@H](Nc2nc(N(C)C)c3ccccc3n2)CC1` [compound 71], 50 to 200 nM. The same measure, in the same setting: in the case of `Cc1cc(C)c(NC(=O)N[C@H]2CC[C@@H](Nc3nc(N(C)C)c4ccccc4n3)CC2)c(C)c1` [compound 58, N-(cis-4-{[4-(dimethylamino)quinazolin-2-yl]amino}cyclohexyl)-N′-mesitylurea] it was below 50 nM.

Still in this experiment, the particulars now being: class by percent of control at 10^−7 M or by IC50; read-out: class.
Consider `COc1cccc(C(O)C(=O)N[C@H]2CC[C@@H](Nc3nc(N(C)C)c4ccccc4n3)CC2)c1` (relative stereo) [Example 1113, N-(cis-4-{[4-(dimethylamino)quinazolin-2-yl]amino}cyclohexyl)-2-hydroxy-2-(3-methoxyphenyl)acetamide], for which the IC50 is below 50 nM. On the same count and under the same terms, in the case of `CN(C)c1nc(N[C@H]2CC[C@@H](C(=O)NCc3ccc(Cl)cc3F)CC2)nc2ccccc12` [Example 1164, cis-N-(4-chloro-2-fluorobenzyl)-4-{[4-(dimethylamino)quinazolin-2-yl]amino}cyclohexanecarboxamide] it was below 50 nM; in that of `CN(C)c1nc(N[C@H]2CC[C@@H](NC(=O)CNc3cccc(F)c3)CC2)nc2ccccc12` [Example 1087, N-(cis-4-{[4-(dimethylamino)quinazolin-2-yl]amino}cyclohexyl)-N2-(3-fluorophenyl)glycinamide], below 50 nM; in that of `CN(C)c1nc(N[C@H]2CC[C@@H](C(=O)NCc3cccc(F)c3)CC2)nc2ccccc12` [Example 1157, cis-4-{[4-(dimethylamino)quinazolin-2-yl]amino}-N-(3-fluorobenzyl)cyclohexanecarboxamide], below 50 nM. On the same count and under the same terms, as for `CN(C)c1nc(N[C@H]2CC[C@@H](NC(=O)c3ccc(Oc4cccc(C(F)(F)F)c4)nc3)CC2)nc2ccccc12` [Example 1057, N-(cis-4-{[4-(dimethylamino)quinazolin-2-yl]amino}cyclohexyl)-6-[3-(trifluoromethyl)phenoxy]nicotinamide], the figure is below 50 nM. Still for that read-out and setting: in the case of `COc1cccc(OC)c1CNC(=O)[C@H]1CC[C@@H](Nc2nc(N(C)C)c3ccccc3n2)CC1` [Example 1188, cis-N-(2,6-dimethoxybenzyl)-4-{[4-(dimethylamino)quinazolin-2-yl]amino}cyclohexanecarboxamide] it was below 50 nM.
